These results are taken from US9744178B2, “Respirable agglomerates of porous carrier particles and micronized drug” (Novartis AG, priority 2013, dated 2017).

Data set [1] is described as follows: Delivered dose uniformity from Concept1 dry powder inhaler. The conditions noted are these: each drug in respirable agglomerates Lot 11015A-7-6, size 3 hypromellose capsules, Concept1, 60 L/min, 2 L, on filter, RP-HPLC. Format: physicochemical. Here is the method: “Emitted Dose” or “ED” as used herein refers to an indication of the delivery of dry powder from an inhaler device after an actuation or dispersion event from a powder unit. ED is defined as the ratio of the dose delivered by an inhaler device to the nominal or metered dose. The ED is an experimentally determined parameter, and may be determined using an in vitro device set up which mimics patient dosing. It is sometimes also referred to as the Delivered Dose (DD). The ED is determined using a drug specific method such as high pressure liquid chromatography.
The bulk powder was filled into size 3 hypromellose capsules. The capsules were then individually filled into a Concept1 dry powder Inhaler (as described herein). The Concept1 Inhaler is a low resistance, capsule-based dry powder Inhaler. The device was emptied at a flow rate of 60 L/min and an inhaled volume of 2 L onto a filter. The mass of each Individual drug on the filter was quantitated by RP-HPLC. The total mass of powder on the filter was also determined gravimetrically.

Data set [2] is described as follows: Particle size (x50, x90) of micronized drug crystals. Format: physicochemical. The conditions noted are these: micronized drug crystals used in the respirable agglomerates. Here is the method: “Mass median diameter” or “MMD” or “×50” as used herein means the median diameter of a plurality of particles, typically in a polydisperse particle population, i.e., consisting of a range of particle sizes. MMD values as reported herein are determined by laser diffraction (Sympatec Helos, Clausthal-Zellerfeld, Germany), unless the context indicates otherwise.
An MMD or an ×50 (particle size distribution wherein 50% of the particles are sized smaller) of the micronized active ingredients should be less than about 3 micron (μm), preferably less than about 2 μm, or 1 μm. In embodiments of the invention, an ×50 is about 0.1-3 μm. An ×90 (particle size distribution wherein 90% of the particles are sized smaller) should be less than 7 μm, preferably less than 5 μm, or 3 μm.

Data set [3] can be described thus: Physical form of indacaterol acetate by X-ray powder diffraction. Format: physicochemical. The conditions noted are these: for Physical stability of the salt form in water: suspended in water / aqueous feedstock to be spray-dried, acetate. Here is the method: In the process of the present invention, an ordered mixture of micronized indacaterol acetate crystals and small porous particles are created by suspending the particles in a liquid perfluorocarbon, and then removing the liquid in a drying process. The physical form of the indacaterol acetate drug substance can be determined by X-ray powder diffraction (XRPD).
The pattern is dominated by the characteristic phospholipid peak at 20=21°. […] Peaks characteristic of indacaterol free base are not present.

Data set [4] deals with β2-adrenoceptor (Homo sapiens, UniProt P07550). Conditions: cited from earlier work.
β2-adrenoceptor, sequence (P07550 whole entry, species assumed): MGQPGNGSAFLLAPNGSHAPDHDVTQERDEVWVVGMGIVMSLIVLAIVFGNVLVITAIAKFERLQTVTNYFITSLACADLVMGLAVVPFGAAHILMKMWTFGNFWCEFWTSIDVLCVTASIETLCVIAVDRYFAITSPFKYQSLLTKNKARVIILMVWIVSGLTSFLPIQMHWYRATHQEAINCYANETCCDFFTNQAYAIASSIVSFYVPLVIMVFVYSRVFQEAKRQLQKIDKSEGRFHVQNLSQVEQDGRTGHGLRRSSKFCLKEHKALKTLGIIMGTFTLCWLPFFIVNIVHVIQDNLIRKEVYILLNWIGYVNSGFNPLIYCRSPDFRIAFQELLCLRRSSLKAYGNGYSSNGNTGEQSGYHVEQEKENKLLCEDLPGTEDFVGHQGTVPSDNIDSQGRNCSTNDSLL

Consider `C[N+]1(C)CCC(OC(=O)C(O)(c2ccccc2)C2CCCC2)C1.[Br-]` (centres unmarked) [Glycopyrronium bromide, 3-[(cyclopentyl-hydroxyphenyl-acetyl)oxy]-1,1-dimethylpyrrolidinium bromide], for which the “Mean delivered dose (% nominal)” value in data set [1] came out at 82.1 % nominal. In data set [2], the “×50” value turned out to be 2.96 μm and the “×90” value is on record as 6.52 μm.

As to `CC(=O)O.CCc1cc2c(cc1CC)CC(NC[C@H](O)c1ccc(O)c3[nH]c(=O)ccc13)C2` [indacaterol acetate, (R)-5-[2-(5,6-diethyl-indan-2-ylamino)-1-hydroxyethyl]-8-hydroxy-1H-quinolin-2-one acetate], the “Mean delivered dose (% nominal)” value in data set [1] is recorded as 83.5 % nominal. Moreover, the “×50” value in data set [2] was found to be 1.63 μm. Further, the “×90” value in data set [2] is listed as 3.08 μm. In addition, the “Physical form after dispersion in PFOB” value in data set [3] (suspended in perfluorooctyl bromide, XRPD) is “salt form of the drug is maintained”. Besides, the “Physical stability of the salt form in water” value was “rapidly disproportionates to form indacaterol free base and acetic acid” in data set [3]; “rapidly disproportionating to form indacaterol free base and acetic acid” in data set [3] (listed as Indacaterol acetate).

`CCc1cc2c(cc1CC)CC(NC[C@H](O)c1ccc(O)c3[nH]c(=O)ccc13)C2` [indacaterol, (R)-5-[2-(5,6-diethyl-indan-2-ylamino)-1-hydroxyethyl]-8-hydroxy-1H-quinolin-2-one]: in data set [4], the Duration of action entry was “over 24 hours” and the Onset of action result is reported as “about 10 minutes”.

For `C[C@@H]1C[C@H]2[C@@H]3CCC4=CC(=O)C=C[C@]4(C)[C@@]3(Cl)[C@@H](O)C[C@]2(C)[C@@]1(OC(=O)c1ccco1)C(=O)CCl` [mometasone furoate, (11β,16α)-9,21-dichloro-17-[(2-furanylcarbonyl)oxy]-11-hydroxy-16-methylpregna-1,4-diene-3,20-dione], in data set [1], the “Mean delivered dose (% nominal)” value was found to be 84.8 % nominal. In data set [2], the “×50” value was 1.22 μm and the “×90” value is recorded as 2.45 μm.
